Test results from ChEMBL document CHEMBL1138676, “Liver-selective glucocorticoid antagonists: a novel treatment for type 2 diabetes” (J Med Chem, 2004).

Tests used:
[1] = biological target: T1, Mineralocorticoid receptor (Homo sapiens, UniProt P08235)
T1 sequence (P08235 whole entry): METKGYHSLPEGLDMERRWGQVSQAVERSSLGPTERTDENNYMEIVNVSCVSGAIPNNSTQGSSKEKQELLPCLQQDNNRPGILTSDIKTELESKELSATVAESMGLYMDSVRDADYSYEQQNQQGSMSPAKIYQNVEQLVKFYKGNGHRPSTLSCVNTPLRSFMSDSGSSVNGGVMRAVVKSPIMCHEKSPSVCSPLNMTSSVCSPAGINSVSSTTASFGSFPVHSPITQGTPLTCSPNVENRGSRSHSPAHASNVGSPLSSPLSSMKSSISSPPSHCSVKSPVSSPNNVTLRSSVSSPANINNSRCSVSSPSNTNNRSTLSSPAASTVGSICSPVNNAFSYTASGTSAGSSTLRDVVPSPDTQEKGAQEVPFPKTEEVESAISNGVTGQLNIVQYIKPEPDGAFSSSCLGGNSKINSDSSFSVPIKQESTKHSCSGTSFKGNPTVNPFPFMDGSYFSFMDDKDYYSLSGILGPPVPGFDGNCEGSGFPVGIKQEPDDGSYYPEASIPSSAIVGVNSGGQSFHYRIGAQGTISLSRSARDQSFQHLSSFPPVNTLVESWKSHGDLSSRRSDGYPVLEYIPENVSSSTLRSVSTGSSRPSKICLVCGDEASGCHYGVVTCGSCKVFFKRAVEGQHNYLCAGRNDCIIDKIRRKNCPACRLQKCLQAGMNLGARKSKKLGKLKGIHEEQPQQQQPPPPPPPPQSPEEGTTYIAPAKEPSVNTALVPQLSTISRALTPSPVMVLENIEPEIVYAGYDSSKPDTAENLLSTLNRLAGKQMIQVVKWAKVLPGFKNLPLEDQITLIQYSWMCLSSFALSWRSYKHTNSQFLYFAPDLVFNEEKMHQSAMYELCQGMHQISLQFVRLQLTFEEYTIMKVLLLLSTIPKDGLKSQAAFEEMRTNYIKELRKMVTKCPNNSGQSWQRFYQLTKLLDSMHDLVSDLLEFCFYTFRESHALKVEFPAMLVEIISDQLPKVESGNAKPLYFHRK
Description: Inhibition of human Mineralocorticoid receptor

Androgen receptor = biological target: T2, Androgen receptor (Homo sapiens, UniProt P10275)
T2 sequence (P10275 whole entry): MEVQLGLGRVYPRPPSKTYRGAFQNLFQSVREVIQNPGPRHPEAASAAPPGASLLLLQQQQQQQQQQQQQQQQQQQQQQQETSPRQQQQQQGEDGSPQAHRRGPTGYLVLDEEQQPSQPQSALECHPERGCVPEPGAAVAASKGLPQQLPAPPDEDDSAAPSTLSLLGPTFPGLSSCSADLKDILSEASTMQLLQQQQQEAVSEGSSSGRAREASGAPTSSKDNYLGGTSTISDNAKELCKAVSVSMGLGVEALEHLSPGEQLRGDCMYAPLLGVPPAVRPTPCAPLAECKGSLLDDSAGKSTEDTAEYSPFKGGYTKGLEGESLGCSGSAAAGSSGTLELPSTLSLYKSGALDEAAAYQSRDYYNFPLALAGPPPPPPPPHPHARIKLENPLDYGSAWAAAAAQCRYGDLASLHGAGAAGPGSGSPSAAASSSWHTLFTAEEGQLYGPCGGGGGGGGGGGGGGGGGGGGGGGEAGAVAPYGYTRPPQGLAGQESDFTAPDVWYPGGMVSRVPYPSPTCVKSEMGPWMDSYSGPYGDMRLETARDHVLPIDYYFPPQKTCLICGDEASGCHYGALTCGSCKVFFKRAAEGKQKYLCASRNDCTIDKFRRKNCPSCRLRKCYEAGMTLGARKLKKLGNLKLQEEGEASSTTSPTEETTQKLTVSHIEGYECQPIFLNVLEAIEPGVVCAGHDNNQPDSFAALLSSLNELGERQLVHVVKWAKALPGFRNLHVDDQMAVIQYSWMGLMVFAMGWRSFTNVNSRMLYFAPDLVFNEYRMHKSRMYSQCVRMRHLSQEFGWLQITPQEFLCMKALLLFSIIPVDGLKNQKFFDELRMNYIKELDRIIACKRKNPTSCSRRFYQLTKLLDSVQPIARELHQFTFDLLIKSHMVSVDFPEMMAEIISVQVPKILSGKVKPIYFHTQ
Description: Inhibition of human androgen receptor

[2] = Inhibitory activity against rat lymphocytes; set-up: concentration or dose not given beside the values
Progesterone receptor = biological target: T3, Progesterone receptor (Homo sapiens, UniProt P06401); assay: Inhibition of human progesterone receptor
T3 sequence (P06401 whole entry): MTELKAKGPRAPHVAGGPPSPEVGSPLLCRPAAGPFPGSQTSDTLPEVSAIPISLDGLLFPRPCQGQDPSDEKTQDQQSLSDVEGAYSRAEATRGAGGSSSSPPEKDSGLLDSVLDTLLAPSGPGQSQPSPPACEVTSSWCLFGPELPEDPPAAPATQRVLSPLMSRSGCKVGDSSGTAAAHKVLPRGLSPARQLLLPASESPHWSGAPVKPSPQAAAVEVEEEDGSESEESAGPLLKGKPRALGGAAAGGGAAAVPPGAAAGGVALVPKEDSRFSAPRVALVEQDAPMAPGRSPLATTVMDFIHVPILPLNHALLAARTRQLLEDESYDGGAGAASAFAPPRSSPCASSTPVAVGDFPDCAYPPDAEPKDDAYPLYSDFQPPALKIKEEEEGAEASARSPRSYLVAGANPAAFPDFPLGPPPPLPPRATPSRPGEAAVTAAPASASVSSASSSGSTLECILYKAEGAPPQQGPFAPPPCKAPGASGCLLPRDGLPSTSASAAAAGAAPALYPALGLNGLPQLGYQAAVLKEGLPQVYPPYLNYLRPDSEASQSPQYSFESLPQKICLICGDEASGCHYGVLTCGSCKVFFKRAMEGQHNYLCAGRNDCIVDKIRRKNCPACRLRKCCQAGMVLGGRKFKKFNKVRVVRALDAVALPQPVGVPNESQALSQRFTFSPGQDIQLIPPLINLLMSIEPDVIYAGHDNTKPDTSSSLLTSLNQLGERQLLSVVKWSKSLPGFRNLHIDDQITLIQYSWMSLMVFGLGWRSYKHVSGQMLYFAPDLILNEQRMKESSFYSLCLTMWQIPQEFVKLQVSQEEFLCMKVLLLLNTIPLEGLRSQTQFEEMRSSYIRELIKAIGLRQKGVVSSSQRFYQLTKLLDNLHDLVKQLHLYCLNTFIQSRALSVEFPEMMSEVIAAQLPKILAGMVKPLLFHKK

[3] = biological target: Glucocorticoid receptor (Rattus norvegicus) (UniProt P06536); assay: Inhibition of glucocorticoid receptor mediated tyrosine aminotransferase activity; set-up: concentration or dose not given beside the values; conditions: concentration not given here
Chain of Glucocorticoid receptor (Rattus norvegicus) (P06536 whole entry, looked up): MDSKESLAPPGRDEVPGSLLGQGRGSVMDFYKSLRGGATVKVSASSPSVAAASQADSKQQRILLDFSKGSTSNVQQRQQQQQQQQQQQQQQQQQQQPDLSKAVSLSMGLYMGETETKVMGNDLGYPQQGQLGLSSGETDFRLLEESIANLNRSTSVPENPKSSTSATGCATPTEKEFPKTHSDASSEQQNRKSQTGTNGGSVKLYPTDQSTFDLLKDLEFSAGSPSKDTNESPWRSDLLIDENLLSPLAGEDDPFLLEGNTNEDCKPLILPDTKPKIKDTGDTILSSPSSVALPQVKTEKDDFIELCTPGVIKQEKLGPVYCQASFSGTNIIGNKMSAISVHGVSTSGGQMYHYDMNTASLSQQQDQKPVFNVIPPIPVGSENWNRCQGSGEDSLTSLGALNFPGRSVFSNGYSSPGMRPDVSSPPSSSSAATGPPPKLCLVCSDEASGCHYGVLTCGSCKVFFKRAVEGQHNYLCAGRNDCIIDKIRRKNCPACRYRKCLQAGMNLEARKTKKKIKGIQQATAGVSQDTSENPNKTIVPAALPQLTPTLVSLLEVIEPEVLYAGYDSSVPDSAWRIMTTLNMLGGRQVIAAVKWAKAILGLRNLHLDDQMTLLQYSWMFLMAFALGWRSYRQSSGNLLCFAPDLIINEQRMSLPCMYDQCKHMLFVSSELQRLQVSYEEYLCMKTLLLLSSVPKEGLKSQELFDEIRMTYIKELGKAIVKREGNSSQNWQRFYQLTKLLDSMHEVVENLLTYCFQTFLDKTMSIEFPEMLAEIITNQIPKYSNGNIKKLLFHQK

Structure (SMILES)	Ki [1]	Ki (Androgen receptor)	Ki (Progesterone receptor)	inhibition [3]	Inhibition [2]
C#C[C@]1(O)CC[C@H]2[C@@H]3CCC4=CC(=O)CCC4=C3[C@@H](c3ccc(N(C)CCCS(=O)(=O)N(C)C4CC[C@@]5(C)[C@@H](C4)C[C@@H](O)[C@@H]4[C@@H]5C[C@H](O)[C@]5(C)[C@@H]([C@H](C)CCC(=O)O)CC[C@@H]45)cc3)C[C@@]21C (stereo partly specified)	300 nM	17 nM	1.9 nM		9%
C#C[C@]1(O)CC[C@H]2[C@@H]3CCC4=CC(=O)CCC4=C3[C@@H](c3ccc(N(C)C(=O)CNC(=O)O[C@@H]4C[C@@H]5CC(O)CC[C@]5(C)[C@H]5C[C@H](O)[C@]6(C)[C@@H]([C@H](C)CCC(=O)O)CC[C@H]6[C@H]45)cc3)C[C@@]21C (stereo partly specified)	> 1000 nM	37 nM	4.4 nM		
C#C[C@]1(O)CC[C@H]2[C@@H]3CCC4=CC(=O)CCC4=C3[C@@H](c3ccc(N(C)C(=O)CNC(=O)OC4CC[C@@]5(C)[C@@H](C4)C[C@@H](O)[C@@H]4[C@@H]5C[C@H](O)[C@]5(C)[C@@H]([C@H](C)CCC(=O)O)CC[C@@H]45)cc3)C[C@@]21C (stereo partly specified)	310 nM	21 nM	2.4 nM		
C#C[C@]1(O)CC[C@H]2[C@@H]3CCC4=CC(=O)CCC4=C3[C@@H](c3ccc(N(C)C(C)=O)cc3)C[C@@]21C	> 1000 nM	8.9 nM	6.4 nM		
C#C[C@]1(O)CC[C@H]2[C@@H]3CCC4=CC(=O)CCC4=C3[C@@H](c3ccc(N(C)C(=O)CC[C@H](NC(=O)CC[C@@H](C)[C@H]4CC[C@H]5[C@@H]6[C@H](O)C[C@@H]7C[C@H](O)CC[C@]7(C)[C@H]6C[C@H](O)[C@]45C)C(=O)O)cc3)C[C@@]21C	590 nM	34 nM	1.2 nM		
C#C[C@]1(O)CC[C@H]2[C@@H]3CCC4=CC(=O)CCC4=C3[C@@H](c3ccc(N(C)CCC[C@H]4[C@H](O)CC[C@@]5(C)[C@@H]4C[C@@H](O)[C@@H]4[C@@H]5C[C@H](O)[C@]5(C)[C@@H]([C@H](C)CCC(=O)O)CC[C@@H]45)cc3)C[C@@]21C	> 1000 nM	53 nM	2.1 nM		

Further lines, with some results ahead:

Ki [1]	Ki (Androgen receptor)	Ki (Progesterone receptor)	inhibition [3]	Structure (SMILES)	Inhibition [2]
850 nM	16 nM	3.5 nM		C#C[C@]1(O)CC[C@H]2[C@@H]3CCC4=CC(=O)CCC4=C3[C@@H](c3ccc(N(C)CCNC(=O)N(C)C4CC[C@@]5(C)[C@@H](C4)C[C@@H](O)[C@@H]4[C@@H]5C[C@H](O)[C@]5(C)[C@@H]([C@H](C)CCC(=O)O)CC[C@@H]45)cc3)C[C@@]21C (stereo partly specified)	
440 nM	8.1 nM	0.81 nM		C#C[C@]1(O)CC[C@H]2[C@@H]3CCC4=CC(=O)CCC4=C3[C@@H](c3ccc(N(C)CCOC4CC[C@@]5(C)[C@@H](C4)C[C@@H](O)[C@@H]4[C@@H]5C[C@H](O)[C@]5(C)[C@@H]([C@H](C)CCC(=O)O)CC[C@@H]45)cc3)C[C@@]21C (stereo in doubt; form 2)	9%
> 1000 nM	8.9 nM	3.3 nM		C#C[C@]1(O)CC[C@H]2[C@@H]3CCC4=CC(=O)CCC4=C3[C@@H](c3ccc(N(C)CCOC4CC[C@@]5(C)[C@@H](C4)C[C@@H](O)[C@@H]4[C@@H]5C[C@H](O)[C@]5(C)[C@@H]([C@H](C)CCC(=O)O)CC[C@@H]45)cc3)C[C@@]21C (stereo in doubt; form 1)	-14%
150 nM	3.3 nM	0.48 nM	60%	C#C[C@]1(O)CC[C@H]2[C@@H]3CCC4=CC(=O)CCC4=C3[C@@H](c3ccc(N(C)CCOCCO[C@H]4CC[C@@]5(C)[C@@H](C4)C[C@@H](O)[C@@H]4[C@@H]5C[C@H](O)[C@]5(C)[C@@H]([C@H](C)CCC(=O)O)CC[C@@H]45)cc3)C[C@@]21C	43%
510 nM	34 nM	1 nM		C#C[C@]1(O)CC[C@H]2[C@@H]3CCC4=CC(=O)CCC4=C3[C@@H](c3ccc(N(C)CCOC4CC[C@@]5(C)[C@@H](C4)C[C@@H](O)[C@@H]4[C@@H]5C[C@H](O)[C@]5(C)[C@@H]([C@H](C)CCC(=O)NCC(=O)O)CC[C@@H]45)cc3)C[C@@]21C (stereo partly specified)	
80 nM	4.6 nM	1.1 nM	64%	C#C[C@]1(O)CC[C@H]2[C@@H]3CCC4=CC(=O)CCC4=C3[C@@H](c3ccc(N(C)CCCOC4CC[C@@]5(C)[C@@H](C4)C[C@@H](O)[C@@H]4[C@@H]5C[C@H](O)[C@]5(C)[C@@H]([C@H](C)CCC(=O)O)CC[C@@H]45)cc3)C[C@@]21C (stereo partly specified)	-5%
140 nM	8.9 nM	0.53 nM		C#C[C@]1(O)CC[C@H]2[C@@H]3CCC4=CC(=O)CCC4=C3[C@@H](c3ccc(N(C)CCOC4CC[C@@]5(C)[C@@H](C4)C[C@@H](O)[C@@H]4[C@@H]5C[C@H](O)[C@]5(C)[C@@H]([C@H](C)CCC(=O)NCCS(=O)(=O)O)CC[C@@H]45)cc3)C[C@@]21C (stereo partly specified)	
190 nM	7.4 nM	0.96 nM	11%	C#C[C@]1(O)CC[C@H]2[C@@H]3CCC4=CC(=O)CCC4=C3[C@@H](c3ccc(N(C)CCCC(=O)N(C)C4CC[C@@]5(C)[C@@H](C4)C[C@@H](O)[C@@H]4[C@@H]5C[C@H](O)[C@]5(C)[C@@H]([C@H](C)CCC(=O)O)CC[C@@H]45)cc3)C[C@@]21C (stereo partly specified)	4%
